This is an account of results in ChEMBL document CHEMBL2046382, “Synthesis, biological evaluation of 5-carbomethoxymethyl-7-hydroxy-2-pentylchromone, 5-carboethoxymethyl-4',7-dihydroxyflavone and their analogues” (Bioorg Med Chem Lett, 2012).

Converted amounts (≈) assume the structure as drawn. The source made the active and inactive calls.

Data set [1] concerns Escherichia coli. The data set can be described thus: Antibacterial activity against Escherichia coli MTCC 739 at 80 ug/ml by modified microtiter broth dilution method. It counts as functional, organism-based. For orientation: In broth dilution the organism is exposed to a series of concentrations in liquid medium.
Data set [2] has as its system Radical scavenging activity. The experiment in a line: Antioxidant activity assessed as DPPH free radical scavenging activity after 48 hrs. It is filed as functional. For orientation: DPPH is a stable violet radical that fades when it is reduced.
For the next data set, the system named is Erythrocyte. The experiment in a line: Antioxidant activity in erythrocytes assessed as inhibition of hemolysis after 48 hrs. It counts as functional, cell-based.
A short description of data set [3]: Antioxidant activity assessed as superoxide radical scavenging activity after 48 hrs. It counts as functional.
For data set [4], the system named is Raoultella planticola. The data set can be described thus: Antibacterial activity against Klebsiella planticola MTCC 530 at 80 ug/ml by modified microtiter broth dilution method. It counts as functional, organism-based.
Data set [5] relates to Staphylococcus aureus. The data set can be described thus: Antibacterial activity against Staphylococcus aureus MTCC 96 by modified microtiter broth dilution method. It counts as functional.
Data set [6] has as its system Pseudomonas aeruginosa. The experiment in a line: Antibacterial activity against Pseudomonas aeruginosa MTCC 2453 at 80 ug/ml by modified microtiter broth dilution method. It is filed as functional, organism-based.
For data set [7], the system named is Bacillus subtilis. The experiment in a line: Antibacterial activity against Bacillus subtilis MTCC 121 at 80 ug/ml by modified microtiter broth dilution method. It is filed as functional, organism-based.
Data set [8] can be described thus: Antioxidant activity of the compound assessed as inhibition of lipid peroxidation after 48 hrs. It is filed as functional.
For data set [9], the system named is Staphylococcus aureus. The data set can be described thus: Antibacterial activity against Staphylococcus aureus MTCC 2940 at 80 ug/ml by modified microtiter broth dilution method. It is filed as functional, organism-based.
In data set [10] the test system is Micrococcus luteus. The experiment in a line: Antibacterial activity against Micrococcus luteus MTCC 2470 at 80 ug/ml by modified microtiter broth dilution method. It is filed as functional, organism-based.
The nature of data set [11]: Chemical stability of the compound in antioxidant reaction. It counts as physicochemical.
Data set [12] has as its system Radical scavenging activity. The data set can be described thus: Antioxidant activity assessed as DPPH free radical scavenging activity. It counts as functional.
Data set [13] can be described thus: Antioxidant activity in erythrocytes assessed as inhibition of hemolysis. It is filed as functional, cell-based. Conditions: erythrocyte.
Data set [14] can be described thus: Antioxidant activity of the compound assessed as inhibition of lipid peroxidation. It is filed as functional.
Data set [15] can be described thus: Antioxidant activity assessed as superoxide radical scavenging activity. It is filed as functional.
The subject of data set [16] is Staphylococcus aureus. The experiment in a line: Antibacterial activity against Staphylococcus aureus MTCC 96 at 80 ug/ml by modified microtiter broth dilution method. It counts as functional, organism-based.
Data set [17] concerns Staphylococcus aureus. The data set can be described thus: Antibacterial activity against Staphylococcus aureus MTCC 2940 by modified microtiter broth dilution method. It is filed as functional.
Data set [18] has as its system Raoultella planticola. The data set can be described thus: Antibacterial activity against Klebsiella planticola MTCC 530 by modified microtiter broth dilution method. It counts as functional.
Data set [19] deals with Pseudomonas aeruginosa. The data set can be described thus: Antibacterial activity against Pseudomonas aeruginosa MTCC 2453 by modified microtiter broth dilution method. It is filed as functional.
Data set [20] has as its system Escherichia coli. The data set can be described thus: Antibacterial activity against Escherichia coli MTCC 739 by modified microtiter broth dilution method. It counts as functional.
Data set [21] relates to Micrococcus luteus. The data set can be described thus: Antibacterial activity against Micrococcus luteus MTCC 2470 by modified microtiter broth dilution method. It is filed as functional.
The subject of data set [22] is Bacillus subtilis. The experiment in a line: Antibacterial activity against Bacillus subtilis MTCC 121 by modified microtiter broth dilution method. It counts as functional.

What is called MIC is the smallest concentration in the dilution series that meets the test's criterion for growth inhibition. Consider `COC(=O)Cc1cc(O)cc2oc(-c3cccc(OC)c3Cl)cc(=O)c12`, for which the result (in the data set with Escherichia coli [1]; in data set [2]; in the data set on Erythrocyte; in data set [3]; in the data set with Raoultella planticola [4]; with Pseudomonas aeruginosa [6]) was inactive. Also, the outcome (in the data set with Bacillus subtilis [7]; in [8]; in the data set on Staphylococcus aureus [9]; in the data set on Micrococcus luteus [10]) was inactive. In the data set with Staphylococcus aureus [5], this compound returned an MIC of 9 µg/mL (≈ 24 µM). Moreover, in [11], the Stability entry is given as “Unstable”.

Broadly, the EC50 is the concentration that produces a half-maximal response. On to `O=C1O[C@H]([C@@H](O)CO)C(O)=C1O` [ASCORBIC ACID], for which the EC50 in [12] came to 40.28 µg/mL (≈ 229 µM); in data set [13], 119.87 µg/mL (≈ 681 µM); in data set [14] it was 139.97 µg/mL (≈ 795 µM); in data set [15], 21.01 µg/mL (≈ 119 µM).

As to `COC(=O)Cc1cc(O)cc2oc(-c3cc(O)c(O)c(O)c3)cc(=O)c12`, the result with Escherichia coli [1], with Staphylococcus aureus [16], with Pseudomonas aeruginosa [6], in the data set on Bacillus subtilis [7] and in the data set with Micrococcus luteus [10] was inactive. In addition, the EC50 in data set [12] was 55.08 µg/mL (≈ 154 µM); in data set [13] it was 139.76 µg/mL (≈ 390 µM); in data set [14], 156.21 µg/mL (≈ 436 µM); in data set [15], 50.09 µg/mL (≈ 140 µM). Besides, the MIC with Staphylococcus aureus [17] and against Raoultella planticola [18] was 9 µg/mL (≈ 25.1 µM) throughout.

`COC(=O)Cc1cc(O)cc2oc(-c3cc(OC)c(OC)c(OC)c3)cc(=O)c12`: the result (in data set [2]; with Erythrocyte; in [3]; in data set [8]) was inactive. For the same compound, the MIC in the data set on Pseudomonas aeruginosa [19] was 18 µg/mL (≈ 45 µM); in the data set on Staphylococcus aureus [5] it was 18 µg/mL (≈ 45 µM); with Escherichia coli [20] it was 18 µg/mL (≈ 45 µM); in the data set on Micrococcus luteus [21], 4 µg/mL (≈ 9.99 µM); against Bacillus subtilis [22], 9 µg/mL (≈ 22.5 µM); with Staphylococcus aureus [17], 18 µg/mL (≈ 45 µM). Besides, the minimum inhibitory concentration (MIC) with Raoultella planticola [18] was 9 µg/mL (≈ 22.5 µM). Moreover, the Stability result in data set [11] is given as “Unstable”.

Regarding `COC(=O)Cc1cc(O)cc2oc(-c3ccc([N+](=O)[O-])cc3)cc(=O)c12`, the outcome (in data set [2]; in the data set on Erythrocyte; in data set [3]; in the data set on Staphylococcus aureus [16]; in the data set on Bacillus subtilis [7]; in data set [8]) was inactive. In addition, the MIC in the data set on Pseudomonas aeruginosa [19] was determined as 9 µg/mL (≈ 25.3 µM); against Escherichia coli [20], 37 µg/mL (≈ 104 µM); against Micrococcus luteus [21] it was 18 µg/mL (≈ 50.7 µM); against Bacillus subtilis [22] it was 18 µg/mL (≈ 50.7 µM); against Staphylococcus aureus [17], 18 µg/mL (≈ 50.7 µM); with Raoultella planticola [18], 9 µg/mL (≈ 25.3 µM). Besides, the Stability entry in data set [11] is reported as “Unstable”.

For the compound `COC(=O)Cc1cc(O)cc2oc(-c3ccc(O)cc3O)cc(=O)c12`, the outcome with Escherichia coli [1], in the data set with Raoultella planticola [4], in the data set on Staphylococcus aureus [16], in the data set on Bacillus subtilis [7], in the data set on Staphylococcus aureus [9] and in the data set with Micrococcus luteus [10] was inactive. Besides, the EC50 was 60 µg/mL (≈ 175 µM) in data set [12], “Not Active” in data set [13], “Not Active” in [14] and 60.9 µg/mL (≈ 178 µM) in data set [15]. Besides, the MIC against Pseudomonas aeruginosa [19] amounted to 9 µg/mL (≈ 26.3 µM).

Consider `CCCCCc1cc(=O)c2c(CC(=O)OC)cc(O)cc2o1` [PESTALOTIOPSONE F], for which the result (in the data set with Escherichia coli [1]; in data set [2]; in the data set on Erythrocyte; in data set [3]; in the data set on Staphylococcus aureus [16]; with Pseudomonas aeruginosa [6]) was inactive. Moreover, the result (with Bacillus subtilis [7]; in data set [8]; in the data set on Micrococcus luteus [10]) was inactive. Also, the minimum inhibitory concentration (MIC) with Staphylococcus aureus [17] and in the data set on Raoultella planticola [18] was 9 µg/mL (≈ 29.6 µM) each time. Also, in [11], the Stability result was “Unstable”.

As for `COC(=O)Cc1cc(O)cc2oc(-c3ccccc3)cc(=O)c12`, the outcome (in the data set on Escherichia coli [1]; in data set [2]; in the data set with Erythrocyte; in data set [3]; in the data set on Raoultella planticola [4]; in the data set on Staphylococcus aureus [16]) was inactive. Further, the outcome (in the data set on Pseudomonas aeruginosa [6]; in the data set with Bacillus subtilis [7]; in data set [8]; in the data set with Micrococcus luteus [10]) was inactive. Further, 9 µg/mL (≈ 29 µM) was the least that counted as inhibitory in the data set with Staphylococcus aureus [17] (MIC). Besides, the Stability entry in [11] is “Unstable”.

As for `COC(=O)Cc1cc(O)cc2oc(-c3ccc(O)c(O)c3)cc(=O)c12`, the outcome in the data set with Escherichia coli [1], with Raoultella planticola [4], in the data set on Staphylococcus aureus [16], in the data set on Bacillus subtilis [7] and with Micrococcus luteus [10] was inactive. Moreover, the EC50 in [12] was determined as 49.99 µg/mL (≈ 146 µM); in [13], 127.98 µg/mL (≈ 374 µM); in data set [14], 142 µg/mL (≈ 415 µM); in data set [15] it was 44.08 µg/mL (≈ 129 µM). The MIC in the data set on Pseudomonas aeruginosa [19] and against Staphylococcus aureus [17] was 9 µg/mL (≈ 26.3 µM) in each case.

Take `COC(=O)Cc1cc(O)cc2occc(=O)c12`: the result (in the data set with Escherichia coli [1]; in data set [2]; with Erythrocyte; in [3]; in the data set with Raoultella planticola [4]; in the data set with Staphylococcus aureus [16]) was inactive. For the same compound, the outcome (with Pseudomonas aeruginosa [6]; in data set [8]; in the data set with Staphylococcus aureus [9]; in the data set with Micrococcus luteus [10]) was inactive. The Stability result in data set [11] is “Unstable”.

Regarding `COC(=O)Cc1cc(O)cc2oc(-c3cc(O)ccc3O)cc(=O)c12`, the concentration giving a half-maximal response (EC50) in data set [12] was found to be 119.11 µg/mL (≈ 348 µM); in [13], 209.56 µg/mL (≈ 612 µM); in [14] it was 221.12 µg/mL (≈ 646 µM); in data set [15] it was 106.22 µg/mL (≈ 310 µM). The outcome (in [2]; in the data set with Erythrocyte; in [3]; in the data set with Raoultella planticola [4]; in the data set on Staphylococcus aureus [16]; with Bacillus subtilis [7]) was inactive. For the same compound, the outcome (in data set [8]; with Staphylococcus aureus [9]) was inactive. The results for the MIC in the data set with Pseudomonas aeruginosa [19], in the data set with Escherichia coli [20] and with Micrococcus luteus [21] were 18 µg/mL (≈ 52.6 µM), 18 µg/mL (≈ 52.6 µM) and 37 µg/mL (≈ 108 µM), respectively. Further, the Stability entry in [11] is listed as “Unstable”.

In the case of `COC(=O)Cc1cc(O)cc2oc(-c3ccc(Cl)cc3)cc(=O)c12`, the outcome (with Escherichia coli [1]; in [2]; with Erythrocyte; in data set [3]; with Raoultella planticola [4]; with Bacillus subtilis [7]) was inactive. The result (in [8]; with Micrococcus luteus [10]) was inactive. Besides, the MIC was determined as 37 µg/mL (≈ 107 µM) in the data set with Pseudomonas aeruginosa [19], 37 µg/mL (≈ 107 µM) against Staphylococcus aureus [5] and 75 µg/mL (≈ 218 µM) in the data set with Staphylococcus aureus [17]. Also, the Stability result in data set [11] was “Unstable”.
